Our source for the IC50 values is patent publication US12240846B2 (Enliven Inc., priority 2020, dated 2025).

Assay [1] relates to HL60 cells. In words: HL60 cell proliferation assay (CellTiter-Glo). It counts as cell-based. To be noted: Homo sapiens, HL-60, HL60 cell viability, 72 hours, read-out: Cell Line (IC50, nM) HL60. (Cellular ATP, detected with luciferase, serves as a proxy for viable cell number.)
The target in assay [2] is T1, ABL1 (Homo sapiens, UniProt P00519).
T1 construct: purchased Carna Biosciences
In words: Luminescence-based ABL kinase assay (300 μM ATP), ADP-Glo. In kind it is biochemical. An excerpt: Compounds were serially diluted in DMSO. […] Luminescence signal positively correlates with kinase activity.
A general note: In ADP-Glo the light output rises with the ADP produced.

Assay [3] concerns the target ABL1 (T315I) (Homo sapiens, UniProt P00519, T315I). The description is as above. In kind it is biochemical.
Assay [4] concerns K562 cells. Nature of the assay: K562 cell proliferation assay (CellTiter-Glo). It counts as cell-based. To be noted: Homo sapiens, K562 cell viability, 72 hours, read-out: Cell Line (IC50, nM) K562.

What is called IC50 is the concentration that gives 50% inhibition. As for `Cn1c(-c2cccc3[nH]cnc23)cc2cc(NC(=O)[C@@H]3C[C@@H]3F)ncc21` [Compound 73, (1S,2S)-N-[2-(1H-1,3-benzodiazol-4-yl)-1-methylpyrrolo[2,3-c]pyridin-5-yl]-2-fluorocyclopropane-1-carboxamide], the IC50 in assay [1] was over 10000 nM; in assay [2], 519 nM; in assay [3], 315 nM; in assay [4], 3710 nM.
Taken in the same sequence, the figures for `COc1cc2[nH]ncc2cc1-c1cc2cc(NC(=O)[C@@H]3C[C@@H]3F)ncc2n1C` [Compound 74, (1S,2S)-2-fluoro-N-[2-(6-methoxy-1H-indazol-5-yl)-1-methylpyrrolo[2,3-c]pyridin-5-yl]cyclopropane-1-carboxamide] were 59.6 nM, 19.6 nM, 30.2 nM and 44.7 nM.
As to `COc1ccccc1-c1cc2cc(NC(=O)NCCN3CCOCC3)ncc2n1C` [Compound 80, 1-(2-(2-methoxyphenyl)-1-methyl-1H-pyrrolo[2,3-c]pyridin-5-yl)-3-(2-morpholinoethyl)urea], the half-maximal inhibitory concentration (IC50) in assay [1] was over 10000 nM; in assay [2], 155 nM; in assay [3] it was 193 nM; in assay [4], 1610 nM.
For `COc1cccc(OC)c1-c1cc2cc(NC(=O)NCCN3CCNCC3)ncc2n1C` [Compound 81, 3-[2-(2,6-dimethoxyphenyl)-1-methylpyrrolo[2,3-c]pyridin-5-yl]-1-[2-(piperazin-1-yl)ethyl]urea], the IC50 in assay [1] is over 10000 nM; in assay [2], 17.2 nM; in assay [3], 23.5 nM; in assay [4], 40.4 nM.
`COc1ncc(F)c(OC)c1-c1cc2cc(NC(=O)NCCN3CCNCC3)ncc2n1C` [Compound 82, 3-[2-(5-fluoro-2,4-dimethoxypyridin-3-yl)-1-methylpyrrolo[2,3-c]pyridin-5-yl]-1-[2-(piperazin-1-yl)ethyl]urea formic acid]: the half-inhibitory concentration (IC50) in assay [1] is over 10000 nM; in assay [2], 31.6 nM; in assay [3], 88.1 nM; in assay [4] it was 125 nM.
Taken in the same sequence, the figures for `CCN1CCN(CCNC(=O)Nc2cc3cc(-c4c(OC)ccnc4OC)n(C)c3cn2)CC1` [Compound 83, 3-[2-(2,4-dimethoxypyridin-3-yl)-1-methylpyrrolo[2,3-c]pyridin-5-yl]-1-[2-(4-ethylpiperazin-1-yl)ethyl]urea formic acid] were over 10000 nM, 106 nM, 230 nM and 160 nM.
Taken in the same sequence, the figures for `COc1ncnc(OC2CC2)c1-c1cc2cc(NC(=O)[C@@H]3C[C@@H]3F)ncc2n1C` [Compound 85, (1S,2S)-N-[2-(4-cyclopropoxy-6-methoxypyrimidin-5-yl)-1-methylpyrrolo[2,3-c]pyridin-5-yl]-2-fluorocyclopropane-1-carboxamide] were 1710 nM, 4.33 nM, 147 nM and 16.5 nM.
Regarding `COc1ccnc(C)c1-c1cc2cc(NC(=O)[C@@H]3C[C@@H]3F)ncc2n1C` [Compound 86, (1S,2S)-2-fluoro-N-(2-(4-methoxy-2-methylpyridin-3-yl)-1-methyl-1H-pyrrolo[2,3-c]pyridin-5-yl)cyclopropane-1-carboxamide], the 50% inhibitory concentration (IC50) in assay [1] was over 10000 nM; in assay [2] it was 200 nM; in assay [3], 2930 nM; in assay [4], 700 nM.
With `CCN1CCN(CCNC(=O)Nc2cc3cc(-c4c(OC)cccc4OC)n(C)c3cn2)CC1` [Compound 87, 1-(2-(2,6-dimethoxyphenyl)-1-methyl-1H-pyrrolo[2,3-c]pyridin-5-yl)-3-(2-(4-ethylpiperazin-1-yl)ethyl)urea], the half-inhibitory concentration (IC50) in assay [1] was over 10000 nM; in assay [2] it was 35 nM; in assay [3] it was 76.6 nM; in assay [4] it was 78.5 nM.
In the case of `[2H]C([2H])([2H])Oc1ncc(F)cc1-c1cc2cc(NC(=O)[C@@H]3C[C@@H]3F)ncc2n1C([2H])([2H])[2H]` [Compound 88, (1S,2S)-2-fluoro-N-(2-(5-fluoro-2-(methoxy-d3)pyridin-3-yl)-1-(methyl-d3)-1H-pyrrolo[2,3-c]pyridin-5-yl)cyclopropane-1-carboxamide], the half-maximal inhibitory concentration (IC50) in assay [1] was 5150 nM; in assay [2], 409 nM; in assay [3], 459 nM; in assay [4], 166 nM.
With `COc1nccc(F)c1-c1cc2cc(NC(=O)[C@@H]3C[C@@H]3F)ncc2n1C` [Compound 89, (1S,2S)-2-fluoro-N-[2-(4-fluoro-2-methoxypyridin-3-yl)-1-methylpyrrolo[2,3-c]pyridin-5-yl]cyclopropane-1-carboxamide], the IC50 in assay [1] stood at 2110 nM; in assay [2] it was 76.6 nM; in assay [3] it was 15 nM; in assay [4], 153 nM.
Turning to `CCc1ncnc(OC)c1-c1cc2cc(NC(=O)[C@@H]3C[C@@H]3F)ncc2n1C` [Compound 92, (1S,2S)-N-[2-(4-ethyl-6-methoxypyrimidin-5-yl)-1-methylpyrrolo[2,3-c]pyridin-5-yl]-2-fluorocyclopropane-1-carboxamide], the half-maximal inhibitory concentration (IC50) in assay [1] was over 10000 nM; in assay [2] it was 494 nM; in assay [3], 1650 nM; in assay [4] it was 227 nM.
In the case of `COc1ncnc(OC)c1-c1cc2cc(NC(=O)[C@H]3C[C@H]3F)ncc2n1C` [Compound 94, (1R,2R)-N-[2-(4,6-dimethoxypyrimidin-5-yl)-1-methylpyrrolo[2,3-c]pyridin-5-yl]-2-fluorocyclopropane-1-carboxamide], the IC50 in assay [1] stood at 9640 nM; in assay [2] it was 57.4 nM; in assay [3], 127 nM; in assay [4], 79.4 nM.
As to `COc1ccnc(OC)c1-c1cc2cc(NC(=O)[C@H]3C[C@H]3F)ncc2n1C` [Compound 97, (1R,2R)-N-[2-(2,4-dimethoxypyridin-3-yl)-1-methylpyrrolo[2,3-c]pyridin-5-yl]-2-fluorocyclopropane-1-carboxamide], the half-inhibitory concentration (IC50) in assay [1] amounted to 3320 nM; in assay [2], 36.6 nM; in assay [3], 76.4 nM; in assay [4], 91.5 nM.
Taken in the same sequence, the figures for `COc1ncnc(OC)c1-c1cc2cc(NC(=O)[C@@H]3C[C@@H]3F)ncc2[nH]1` [Compound 99, (1S,2S)-N-(2-(4,6-dimethoxypyrimidin-5-yl)-1H-pyrrolo[2,3-c]pyridin-5-yl)-2-fluorocyclopropane-1-carboxamide] were over 10000 nM, 111 nM, over 10000 nM and 396 nM.
`CNc1nc(OC)c(-c2cc3cc(NC(=O)[C@@H]4C[C@@H]4F)ncc3n2C)c(OC)n1` [Compound 105, (1S,2S)-N-(2-(4,6-dimethoxy-2-(methylamino)pyrimidin-5-yl)-1-methyl-1H-pyrrolo[2,3-c]pyridin-5-yl)-2-fluorocyclopropane-1-carboxamide]: the IC50 in assay [1] was found to be 199 nM; in assay [2], 71.4 nM; in assay [3], 79 nM; in assay [4], 60.9 nM.
Consider `COc1ncnc(O)c1-c1cc2cc(NC(=O)[C@@H]3C[C@@H]3F)ncc2n1C` [Compound 106, (1S,2S)-2-fluoro-N-[2-(4-hydroxy-6-methoxypyrimidin-5-yl)-1-methylpyrrolo[2,3-c]pyridin-5-yl]cyclopropane-1-carboxamide], for which the half-inhibitory concentration (IC50) in assay [1] was over 10000 nM; in assay [2], 1690 nM; in assay [3], over 10000 nM; in assay [4], over 10000 nM.
With `COc1cnnc(OC)c1-c1cc2cc(NC(=O)[C@@H]3C[C@@H]3F)ncc2n1C` [Compound 107, (1S,2S)-N-[2-(3,5-dimethoxypyridazin-4-yl)-1-methylpyrrolo[2,3-c]pyridin-5-yl]-2-fluorocyclopropane-1-carboxamide], the IC50 in assay [1] came out at 2550 nM; in assay [2], 17.4 nM; in assay [3] it was 94.6 nM; in assay [4], 40.5 nM.
Taken in the same sequence, the figures for `COc1nc(O)nc(OC)c1-c1cc2cc(NC(=O)[C@@H]3C[C@@H]3F)ncc2n1C` [Compound 108, (1S,2S)-2-fluoro-N-(2-(2-hydroxy-4,6-dimethoxypyrimidin-5-yl)-1-methyl-1H-pyrrolo[2,3-c]pyridin-5-yl)cyclopropane-1-carboxamide] were over 10000 nM, 6.32 nM, 12.4 nM and 736 nM.
Taken in the same sequence, the figures for `CCc1ncccc1-c1cc2cc(NC(=O)[C@@H]3C[C@@H]3F)ncc2n1C` [Compound 112, (1S,2S)-N-[2-(2-ethylpyridin-3-yl)-1-methylpyrrolo[2,3-c]pyridin-5-yl]-2-fluorocyclopropane-1-carboxamide] were over 10000 nM, 1320 nM, 564 nM and 1780 nM.
`COc1ncnc(C)c1-c1cc2cc(NC(=O)[C@@H]3C[C@@H]3F)ncc2n1C` [Compound 113, (1S,2S)-2-fluoro-N-[2-(4-methoxy-6-methylpyrimidin-5-yl)-1-methylpyrrolo[2,3-c]pyridin-5-yl]cyclopropane-1-carboxamide]: the half-inhibitory concentration (IC50) in assay [1] is over 10000 nM; in assay [2] it was 84.4 nM; in assay [3], 366 nM; in assay [4], 314 nM.
In the case of `CCOc1nccc(C)c1-c1cc2cc(NC(=O)[C@@H]3C[C@@H]3F)ncc2n1C` [Compound 114, (1S,2S)-N-[2-(2-ethoxy-4-methylpyridin-3-yl)-1-methylpyrrolo[2,3-c]pyridin-5-yl]-2-fluorocyclopropane-1-carboxamide], the concentration for half-maximal inhibition (IC50) is over 10000 nM in assay [1], 77 nM in assay [2], 546 nM in assay [3] and 257 nM in assay [4].
